The values that follow are results of earlier work, collected in patent EP2604265A1, “P2x7 antagonists as frontline or adjunctive treatment against status epilepticus” (Royal College of Surgeons in Ireland (RCSI), priority 2011, dated 2013).

In the data set the target is T1, P2X2 (Homo sapiens, UniProt Q9UBL9).
T1 sequence (Q9UBL9 1-471): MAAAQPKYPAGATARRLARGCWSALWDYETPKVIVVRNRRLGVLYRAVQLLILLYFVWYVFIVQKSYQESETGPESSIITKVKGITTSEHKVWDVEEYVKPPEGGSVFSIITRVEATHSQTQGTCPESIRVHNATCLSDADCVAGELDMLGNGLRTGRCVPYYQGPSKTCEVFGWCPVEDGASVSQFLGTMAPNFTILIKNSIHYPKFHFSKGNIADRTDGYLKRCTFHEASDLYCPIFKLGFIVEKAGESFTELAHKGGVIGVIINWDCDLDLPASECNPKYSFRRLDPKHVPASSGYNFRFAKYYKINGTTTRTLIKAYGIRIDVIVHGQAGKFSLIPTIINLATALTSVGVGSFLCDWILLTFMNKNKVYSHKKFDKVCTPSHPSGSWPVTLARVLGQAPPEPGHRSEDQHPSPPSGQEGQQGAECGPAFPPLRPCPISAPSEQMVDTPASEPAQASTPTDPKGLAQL
The settings on record: selectivity of BBG; cited from earlier work.

As for `CCOc1ccc(Nc2ccc(C(=C3C=CC(=[N+](CC)Cc4cccc(S(=O)(=O)[O-])c4)C=C3C)c3ccc(N(CC)Cc4cccc(S(=O)(=O)O)c4)cc3C)cc2)cc1` [BBG, Brilliant Blue G], the “inhibition of P2X2” value is on record as “low micromolar range”.
